Earlier results in US20130053422A1, “Antimicrobial Compositions” (priority 2010, published 2013).

Assays:
Details in all cases: after 5 to 60 minutes
bovine parainfluenzae 3 = test system: bovine parainfluenzae 3
Vaccinia virus = test system: Vaccinia virus
Herpes virus type 1 = test system: Herpes virus type 1

CCCCCCCCCCCC(=O)N[C@@H](CCCN=C(N)N)C(=O)OCC [LAE, lauric arginate]
nearly complete reduction: reduction of bovine parainfluenzae 3 (bovine parainfluenzae 3) | reduction of Vaccinia virus (Vaccinia virus) | reduction of Herpes virus type 1 (Herpes virus type 1)
